Measured values published in publication PMC10443802, “Targeting a xenobiotic transporter to ameliorate vincristine-induced sensory neuropathy” (JCI Insight, 2023).
Values joined by “and” are separate entries in the source; they are usually repeats but may differ in a detail not shown here. Identical values can stand only once.

Columns and labels:
OATP1B-type transporters = settings: read-out: IC50, inhibition of OATP1B-mediated transport; cited from earlier work
hOATP1B1 = biological target: T1, hOATP1B1 (Homo sapiens, UniProt Q9Y6L6); assay: Inhibition of vincristine uptake in HEK293 cells overexpressing hOATP1B1; settings: inhibitor 15 min pre-treatment
T1 sequence (Q9Y6L6 1-691): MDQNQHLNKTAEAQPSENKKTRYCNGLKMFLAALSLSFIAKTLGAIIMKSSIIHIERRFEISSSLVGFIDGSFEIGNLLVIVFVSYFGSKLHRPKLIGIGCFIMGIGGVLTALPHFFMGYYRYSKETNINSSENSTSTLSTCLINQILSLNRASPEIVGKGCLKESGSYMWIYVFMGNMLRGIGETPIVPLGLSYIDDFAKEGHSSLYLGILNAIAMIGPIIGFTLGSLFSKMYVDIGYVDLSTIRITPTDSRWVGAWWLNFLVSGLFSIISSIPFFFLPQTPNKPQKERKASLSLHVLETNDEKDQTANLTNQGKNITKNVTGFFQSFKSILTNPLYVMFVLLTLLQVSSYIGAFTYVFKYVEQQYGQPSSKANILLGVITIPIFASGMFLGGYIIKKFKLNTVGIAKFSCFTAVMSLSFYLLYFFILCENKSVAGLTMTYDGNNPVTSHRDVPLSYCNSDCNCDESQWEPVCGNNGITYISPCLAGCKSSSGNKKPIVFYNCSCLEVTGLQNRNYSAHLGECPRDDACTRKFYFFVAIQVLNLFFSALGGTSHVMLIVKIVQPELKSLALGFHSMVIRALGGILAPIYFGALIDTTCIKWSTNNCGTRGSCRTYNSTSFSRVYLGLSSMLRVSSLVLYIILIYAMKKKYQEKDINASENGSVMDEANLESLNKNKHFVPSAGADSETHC

LYN kinase = biological target: T2, LYN kinase (Mus musculus, UniProt P25911); assay: Phosphorylation of LYN kinase in DRG of mice (phospho-LYN/total LYN); type: in vivo
T2 construct: from tissue
T2 sequence (P25911 whole entry): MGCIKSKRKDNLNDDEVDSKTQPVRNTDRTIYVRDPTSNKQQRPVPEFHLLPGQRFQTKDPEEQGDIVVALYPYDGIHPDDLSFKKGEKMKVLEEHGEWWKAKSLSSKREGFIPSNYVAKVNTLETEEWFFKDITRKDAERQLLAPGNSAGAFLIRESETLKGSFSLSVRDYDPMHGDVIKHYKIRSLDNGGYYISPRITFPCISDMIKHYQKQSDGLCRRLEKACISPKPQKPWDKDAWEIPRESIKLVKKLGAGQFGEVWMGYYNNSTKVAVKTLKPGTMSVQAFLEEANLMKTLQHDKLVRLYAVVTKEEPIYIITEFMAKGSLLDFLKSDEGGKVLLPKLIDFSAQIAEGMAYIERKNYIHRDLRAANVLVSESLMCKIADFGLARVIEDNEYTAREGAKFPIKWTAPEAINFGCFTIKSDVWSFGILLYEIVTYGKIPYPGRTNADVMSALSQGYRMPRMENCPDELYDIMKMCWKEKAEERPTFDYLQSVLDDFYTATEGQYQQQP
Experimental: mg/kg; p.o.) wild-type mice, using specific antibodies for phospho-LYN and total LYN (n = 3 per group).
(C) Mechanical allodynia in wild-type mice and LYN-deficient [LYN(-/-)] mice 24 h after a single dose of
Data presented represent the mean (bars) ± SEM (error
bars), and paw sensitivity is expressed as a percentage over baseline values. Statistical analysis was […]

hOAT1 = hOAT1 (Homo sapiens, UniProt Q4U2R8); assay: Vincristine uptake screen, HeLa cells overexpressing hOAT1; type: in vitro ADME
hOAT1, sequence (Q4U2R8 whole entry): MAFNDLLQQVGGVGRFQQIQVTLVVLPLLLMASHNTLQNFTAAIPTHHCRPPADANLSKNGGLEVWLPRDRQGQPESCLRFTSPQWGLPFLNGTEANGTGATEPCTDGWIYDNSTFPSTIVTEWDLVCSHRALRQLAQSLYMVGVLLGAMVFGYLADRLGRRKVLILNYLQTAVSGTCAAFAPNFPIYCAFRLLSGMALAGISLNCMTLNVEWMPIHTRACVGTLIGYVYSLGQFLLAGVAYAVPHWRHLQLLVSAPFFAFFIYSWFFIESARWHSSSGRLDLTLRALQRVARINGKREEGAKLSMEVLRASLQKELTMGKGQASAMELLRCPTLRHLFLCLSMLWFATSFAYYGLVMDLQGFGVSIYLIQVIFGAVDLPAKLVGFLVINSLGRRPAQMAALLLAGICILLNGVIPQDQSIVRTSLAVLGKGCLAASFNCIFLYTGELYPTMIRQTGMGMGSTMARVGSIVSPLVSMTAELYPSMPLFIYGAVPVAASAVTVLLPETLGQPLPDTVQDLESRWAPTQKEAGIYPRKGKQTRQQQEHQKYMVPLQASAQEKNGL
Experimental: (§1) Relative uptake is expressed as percentage change compared with empty vector controls (n = 4–14 per group). […] Human OATP1B1 and OATP1B3 transporter–overexpressed cells were used as positive controls; empty vector controls were used as the negative control. […] Mechanical allodynia (C), thermal hyperalgesia (D), and sciatic nerve maximal action potential amplitudes (E) are expressed as percentage change relative to baseline values (n = 6–8 per group). Statistical analysis was performed using a 2-way ANOVA with Bonferroni’s post hoc test. **P < 0.01, ***P < 0.001, ****P < 0.0001, compared with baseline values. […] Data are shown as mean ± SEM. […]
(§2) transfected with transporters of interest, including hOAT1, hOAT3, hOAT4, hOATP1A2, hOATP3A1, hOATP4A1, hOATP5A1, hOATP1C1, hOATP1B1, hOATP1B3, hOATP2B1, hOCT1, hOCT2, hOCTN1, hOCTN2, hASBT, hNTCP, hNPT1, hMATE1, hOSTα/β, hPEPT1, hPEPT2, rOatp1a1, rOatp1a4, rOatp1a5, rOatp1b2, rNtcp, rAsbt, rOat1, and rOct1. Cells were transfected with expression plasmid or vector control lacking any insert using Lipofectin reagent (Invitrogen). […] The cellular radioactivity was quantified by liquid scintillation counting as described above. […]
Samples were analyzed using real-time quantitative PCR and Taqman Probes (Applied Biosystems). The relative gene expression was determined using the ΔΔCt method, and normalized to the mouse or human housekeeping gene, GAPDH. […]

rOCT1 = rOCT1 (Rattus norvegicus, UniProt Q63089); assay: Vincristine uptake screen, HeLa cells overexpressing rOCT1; type: in vitro ADME
rOCT1, sequence (Q63089 whole entry): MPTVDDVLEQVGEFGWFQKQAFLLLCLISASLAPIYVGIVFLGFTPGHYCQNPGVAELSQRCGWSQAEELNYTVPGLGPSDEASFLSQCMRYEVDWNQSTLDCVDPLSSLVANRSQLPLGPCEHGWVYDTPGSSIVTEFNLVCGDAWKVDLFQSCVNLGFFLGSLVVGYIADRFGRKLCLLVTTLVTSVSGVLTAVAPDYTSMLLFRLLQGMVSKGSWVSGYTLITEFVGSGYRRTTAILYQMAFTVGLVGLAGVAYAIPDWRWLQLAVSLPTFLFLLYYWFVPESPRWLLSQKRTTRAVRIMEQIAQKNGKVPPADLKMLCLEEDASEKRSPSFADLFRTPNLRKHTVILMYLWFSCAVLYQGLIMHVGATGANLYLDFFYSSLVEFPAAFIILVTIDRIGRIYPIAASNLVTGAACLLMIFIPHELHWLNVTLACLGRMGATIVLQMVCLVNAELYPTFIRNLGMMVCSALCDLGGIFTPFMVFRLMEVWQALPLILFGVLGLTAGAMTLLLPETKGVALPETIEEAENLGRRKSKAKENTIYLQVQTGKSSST
Experimental: as §1
as §2, with “(Invitrogen). Sixteen hours thereafter, cells were washed with transport media (OPTIMEM, Invitrogen) and treated with radiolabeled drug.” for “(Invitrogen).”

mMATE1 = mMATE1 (Mus musculus, UniProt Q8K0H1); assay: Substrate uptake in HEK293 cells overexpressing mMATE1; settings: HEK293 mouse MATE1
mMATE1, sequence (Q8K0H1 whole entry): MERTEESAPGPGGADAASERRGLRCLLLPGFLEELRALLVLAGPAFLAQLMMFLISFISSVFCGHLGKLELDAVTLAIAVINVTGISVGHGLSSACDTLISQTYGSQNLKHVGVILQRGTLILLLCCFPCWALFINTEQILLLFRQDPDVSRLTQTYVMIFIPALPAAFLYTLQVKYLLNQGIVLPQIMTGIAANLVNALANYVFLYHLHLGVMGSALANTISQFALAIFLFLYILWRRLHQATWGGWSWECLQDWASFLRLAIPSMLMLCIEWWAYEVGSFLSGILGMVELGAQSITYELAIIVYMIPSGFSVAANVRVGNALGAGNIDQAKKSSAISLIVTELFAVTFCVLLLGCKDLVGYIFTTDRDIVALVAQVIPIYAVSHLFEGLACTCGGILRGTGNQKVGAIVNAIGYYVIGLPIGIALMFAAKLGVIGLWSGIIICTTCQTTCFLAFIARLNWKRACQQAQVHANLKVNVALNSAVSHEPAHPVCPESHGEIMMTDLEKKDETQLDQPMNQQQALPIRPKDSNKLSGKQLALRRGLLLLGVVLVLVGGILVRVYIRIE
Experimental: on OATP1B1, OATP1B3, or OATP1B2 function was evaluated using EβG (Axxora LLC) as the
transfected with transporters of interest, including hOAT1, hOAT3, hOAT4, hOATP1A2, hOATP3A1, hOATP4A1, hOATP5A1, hOATP1C1, hOATP1B1, hOATP1B3, hOATP2B1, hOCT1, hOCT2, hOCTN1, hOCTN2, hASBT, hNTCP, hNPT1, hMATE1, hOSTα/β, hPEPT1, hPEPT2, rOatp1a1, rOatp1a4, rOatp1a5, rOatp1b2, rNtcp, rAsbt, rOat1, and rOct1. Cells were transfected with expression plasmid or vector control lacking any insert using Lipofectin reagent (Invitrogen). Sixteen hours thereafter, cells were washed with transport media (OPTIMEM, Invitrogen) and treated with radiolabeled drug. At various time intervals, cells were washed three times with ice-cold PBS and then lysed with 1% sodium dodecyl sulfate. The cellular radioactivity was quantified by liquid scintillation counting as described above. Similar analyses were performed in HEK293 cells transfected with hOATP1A2, hOATP1C1, mMATE1, and hMATE1, with cells seeded in poly lysine pre-coated 12-well plates. For hOATP1A2 and hOATP1C1, transient transfections were performed with either an empty vector, OATP1A2, or OATP1C1 using Lipofectamine 2000 according to the manufacturers protocol (Invitrogen).

Compound	IC50 (OATP1B-type transporters) [nM]	Vincristine uptake (% of vehicle) (hOATP1B1)	DRG Phosho-LYN/Total LYN (% of Untreated) (LYN kinase; DRG of mice)	Phosphorylated-LYN in DRG neurons (LYN kinase; nilotinib 100 mg/kg p.o., wild-type mice)	Vincristine uptake (% of vector control) (hOAT1)	Vincristine uptake (% of vector control) (rOCT1)	Contribution of transporter to cellular uptake of vincristine (mMATE1)
Cc1cn(-c2cc(NC(=O)c3ccc(C)c(Nc4nccc(-c5cccnc5)n4)c3)cc(C(F)(F)F)c2)cn1 [Nilotinib, nilotinib]	~1000	101.303 % of vehicle and 90.7094 % of vehicle and 62.8074 % of vehicle and 106.906 % of vehicle and 107.581 % of vehicle and 108.402 % of vehicle	47.9691 % of Untreated and 52.4315 % of Untreated and 37.2669 % of Untreated	significant inhibition of phosphorylated-LYN in DRG neurons			
CC[C@]1(O)C[C@H]2CN(CCc3c([nH]c4ccccc34)[C@@](C(=O)OC)(c3cc4c(cc3OC)N(C=O)[C@H]3[C@@](O)(C(=O)OC)[C@H](OC(C)=O)[C@]5(CC)C=CCN6CC[C@]43[C@@H]65)C2)C1 [Vincristine, vincristine]					127.00 % of vector control and 112.00 % of vector control and 76.00 % of vector control and 98.00 % of vector control and 129.00 % of vector control and 120.00 % of vector control and 111.00 % of vector control and 117.00 % of vector control	113.00 % of vector control and 108.00 % of vector control and 138.00 % of vector control and 121.00 % of vector control	do not appreciably contribute to the cellular uptake of vincristine
